Measurements published in US8486372B2, “Cyclic azapeptides as integrin markers and methods of using” (Siemens Medical Solutions USA, Inc., priority 2007, dated 2013).

Target: T1, Integrin αvβ3 expressing U87MG cells (Homo sapiens, UniProt P05106+P06756)
T1 construct: Integrin αvβ3 expressing U87MG cells; endogenous in cells; host or cells: U87MG cells
Assay: Cell-based integrin binding competition assay against green fluorescence labeled compound 13
Settings: 0-32 μM compound, 2 μM compound 13, 2 hrs, fluorescence reading, FIG. 2
Method: Integrin αvβ3 expressing U87MG cells were incubated with a series of concentration of RGD compounds (0-32 μM) in the presence of 2 μM of green fluorescence labeled compound 13 for 2 hrs. After incubation, cells were washed three times to eliminate unbound RGD compounds. Fluorescence readings (RLU) were then taken (excitation at 491 nm, emission at 518 nm, cutoff 515 nm).

SMILES: N=C(N)NCCC[C@@H]1NC(=O)[C@H](CCCCN)NC(=O)N(Cc2ccccc2)NC(=O)[C@H](CC(=O)O)NC(=O)CNC1=O [Compound 7, 2-((5S,8S,14S)-5-(4-aminobutyl)-2-benzyl-8-(3-guanidinopropyl)-3,6,9,12,15-pentaoxo-1,2,4,7,10,13-hexaazacyclopentadecan-14-yl)acetic acid]
- potency in binding competition: very similar in potency
